Reference: US12622891B2, “AMP-activated protein kinase activator” (KYOTO PHARMACEUTICAL UNIVERSITY, priority 2021, dated 2026)

Key:
[1] = system: human colon cancer SW48 cells; test: Proliferation suppressive action on human colon cancer SW48 cells (Trypan blue viable cell count); format: cell-based; settings: 500 nM, 3 days; FIG. 4
Protocol: Human colon cancer SW48 cells were cultured in a 5% CO2 incubator at 37° C. using DMEM (FUJIFILM Wako Pure Chemical Corporation, Japan) supplemented with 10% bovine fetal serum (FBS, HyClone, GE Healthcare Life Sciences, Buckinghamshire, England) and 1% penicillin/streptomycin (FUJIFILM Wako Pure Chemical Corporation, respectively 100 units/mL, 100 μg/mL). SW48 cells were suspended in trypsin (Lonza, Walkersville, MD, USA), and 1×10^5 cells were seeded in a 6-well dish (TPP, Trasadingen, Switzerland). After 24 hr, a group of the compounds of the present invention (compound (I-4), compound (I-5), and compound (I-10)) diluted with a culture medium to a final concentration of 500 nM was allowed to act for 3 days. Proliferation of these cells was evaluated using Trypan blue (FUJIFILM Wako Pure Chemical Corporation, Japan) staining method and counting the number of viable cells using a Countess II automatic cell counter (Thermo Fisher Scientific, Waltham, MA).

phosphorylated AMPK [2] = test: Phosphorylated AMPK increasing action on human colon cancer SW48 cells (Western blot, phospho-AMPKα Thr172); format: cell-based; settings: 100 nM, 2 days; FIG. 6
Protocol: Human colon cancer SW48 cells were cultured in a 5% CO2 incubator at 37° C. using DMEM (FUJIFILM Wako Pure Chemical Corporation, Japan) supplemented with 10% bovine fetal serum (FBS, HyClone, GE Healthcare Life Sciences, Buckinghamshire, England) and 1% penicillin/streptomycin (FUJIFILM Wako Pure Chemical Corporation, respectively 100 units/mL, 100 μg/mL). SW48 cells were suspended in trypsin (Lonza, Walkersville, MD, USA), and 1×10^5 cells were seeded in a 6-well dish (TPP, Trasadingen, Switzerland). After 24 hr, the cells were treated with the compounds of the present invention (compound (I-4), compound (I-5), and compound (I-10)) diluted with a culture medium to a final concentration of 100 nM and allowed to act for 2 days. Cellular proteins were dissolved in 1% SDS buffer supplemented with a protease inhibitor cocktail mix (Nacalai Tesque, Kyoto, Japan), and SDS-PAGE was performed. After transferring to PVDF membrane (Millipore, Billerica, MA, USA), Western blot analysis was performed using anti-phospho-AMPKα (Thr172, 1:1000, #2535; CST) antibody. GAPDH protein was analyzed as a loading control.

phosphorylated AMPK [3] = test: Phosphorylated AMPK increasing action on human lung cancer A549 cells (Western blot, phospho-AMPKα Thr172); format: cell-based; settings: 100 nM to 1 μM, 3 days; FIG. 9
Protocol: Human lung cancer A549 cells were cultured in a 5% CO2 incubator at 37° C. using DMEM (FUJIFILM Wako Pure Chemical Corporation, Japan) supplemented with 10% bovine fetal serum (FBS, HyClone, GE Healthcare Life Sciences, Buckinghamshire, England) and 1% penicillin/streptomycin (FUJIFILM Wako Pure Chemical Corporation, respectively 100 units/mL, 100 μg/mL). A549 cells were suspended in trypsin (Lonza, Walkersville, MD, USA), and 1×10^5 cells were seeded in a 6-well dish (TPP, Trasadingen, Switzerland). After 24 hr, they were treated with the compound of the present invention diluted in a culture medium to final concentrations of 100 nM to 1 μM and allowed to act for 3 days. Cellular proteins were dissolved in 1% SDS buffer supplemented with a protease inhibitor cocktail mix (Nacalai Tesque, Kyoto, Japan), and SDS-PAGE was performed. After transferring to PVDF membrane (Millipore, Billerica, MA, USA), Western blot analysis was performed using anti-phospho-AMPKα (Thr172, 1:1000, #2535; CST) antibody. GAPDH protein was analyzed as a loading control.

[4] = system: human glioblastoma cell line U251; test: Proliferation of human glioblastoma U251 cells, compound alone or combined with temozolomide (viable cell count, CI/isobologram); format: cell-based; settings: temozolomide 12.5, 25, 50 μM with compound 25, 50, 100 nM, 6 days; CI < 0.9 = synergistic; FIG. 2
Protocol: According to the method described in a literature (Matsumura K, et al. BMC Cancer (2016) 16(1):748.), human glioblastoma cell line U251 was cultured in a 5% CO2 incubator at 37° C. using DMEM (FUJIFILM Wako Pure Chemical Corporation, Japan) supplemented with 10% bovine fetal serum (FBS, HyClone, GE Healthcare Life Sciences, Buckinghamshire, England) and 1% penicillin/streptomycin (FUJIFILM Wako Pure Chemical Corporation, respectively 100 units/mL, 100 μg/mL). Temozolomide (Sigma Chemical, St. Louis, MO, USA) which is used as a standard drug for the treatment of glioblastoma was dissolved at 200 mM using dimethyl sulfoxide (Nacalai Tesque, Kyoto, Japan) as a solvent. […] Proliferation of these cells was evaluated using Trypan blue (FUJIFILM Wako Pure Chemical Corporation, Japan) staining method and counting the number of viable cells using a Countess II automatic cell counter (Thermo Fisher Scientific, Waltham, MA). Combination index (CI) values of temozolomide and the compound of the present invention were calculated using CalcuSyn 2.11 software (Biosoft, Cambridge, UK), and Isobologram analysis was performed. The CI value of less than 0.9 was determined to be a synergistic effect, the CI value of 0.9 or more and less than 1.1 was determined to be an additive effect, and the CI value of 1.1 or more was determined to be an antagonistic effect.

[5] = system: AMP/ATP ratio of human colon cancer SW48 cells; test: AMP/ATP ratio increasing action on human colon cancer SW48 cells (AMP Glo / Cell Titer Glo); format: cell-based; settings: 500 nM and 1 μM, 2 days; FIG. 5
Protocol: Human colon cancer SW48 cells were cultured in a 5% CO2 incubator at 37° C. using DMEM (FUJIFILM Wako Pure Chemical Corporation, Japan) supplemented with 10% bovine fetal serum (FBS, HyClone, GE Healthcare Life Sciences, Buckinghamshire, England) and 1% penicillin/streptomycin (FUJIFILM Wako Pure Chemical Corporation, respectively 100 units/mL, 100 μg/mL). SW48 cells were suspended in trypsin (Lonza, Walkersville, MD, USA), and 1×10^5 cells were seeded in a 6-well dish (TPP, Trasadingen, Switzerland). After 24 hr, the cells were treated with the compound of the present invention (compound (I-5)) diluted with a culture medium to final concentrations of 500 nM and 1 μM and allowed to act for 2 days. Intracellular AMP was measured with the AMP Glo assay kit (Promega, Madison, WI, USA), and intracellular ATP was measured with the Cell Titer Glo Luminescent Cell Viability Assay Kit (Promega, Madison, WI, USA) using a SYNERGY HT (BioTek Instruments, Inc. Winooski, VT, USA), and the AMP/ATP ratio was calculated.

[6] = system: glioblastoma transplanted tumor; test: In vivo antitumor effect in a mouse glioblastoma transplantation model (luciferase imaging); settings: C57BL6J mouse, 10 mg/kg intraperitoneally three times a week, three weeks after transplantation; FIG. 3
Protocol: According to the method described in a literature (Tanigawa S, et al. Cancer Gene Therapy (2021). https://doi.org/10.1038/s41417-020-00282-5), murine glioblastoma stem cells introduced with the Luciferase gene were established, and cultured as neurosphere cells in a 5% CO2 incubator at 37° C. using Neurobasal medium supplemented with B27 and N2 supplements (Gibco/Thermo Fisher Scientific, Waltham, MA, USA) and 10 ng/mL of EGF and bFGF (R&D Systems, Minneapolis, MN, USA). The neurospheres were made into a single cell suspension by Accutase (Innovative Cell Technologies, San Diego, CA, USA) treatment, and 1×10^3 cells suspended in 2 μL of PBS were transplanted into the cerebrum of a 6-week-old male C57BL6J mouse (Oriental Bioservice, Kyoto, Japan) fixed on a Stereotaxic Instrument (51730D; Stoelting Co., Wood Dale, IL, USA) using a 30-gauge Hamilton syringe with autoinjector (Legato130; KD Scientific, Holliston, MA, USA). […] Three weeks after cell transplantation, D-luciferin was administered intraperitoneally at a dose of 150 mg/kg and in vivo tumor size was evaluated using the IVIS Lumina XR imaging system (Summit Pharmaceuticals International, Tokyo, Japan).

[7] = Body weight change on daily intraperitoneal administration in the SW48 transplantation model; format: in vivo, mouse; settings: CB17 SCID mice, 20 mg/kg daily intraperitoneally for 3.5 weeks; FIG. 7(C)
Protocol: (§1) According to the method described in a literature (Ii H, et al. ChemMedChem. (2018) 13(2):155-163), human colon cancer SW48 cells were cultured in a 5% CO2 incubator at 37° C. using DMEM (FUJIFILM Wako Pure Chemical Corporation, Japan) supplemented with 10% bovine fetal serum (FBS, HyClone, GE Healthcare Life Sciences, Buckinghamshire, England) and 1% penicillin/streptomycin (FUJIFILM Wako Pure Chemical Corporation, respectively 100 units/mL, 100 μg/mL). SW48 cells were suspended in trypsin (Lonza, Walkersville, MD, USA), and 3×10^6 cells were suspended in 100 μL of PBS/Matrigel (1:1, Corning, Corning, NY, USA), and subcutaneously injected into 6-week-old male or female CB17 SCID mice (Japan Clea, Osaka, Japan) to create a subcutaneous transplantation tumor model. The compound of the present invention was dissolved in 10% ethanol (FUJIFILM Wako Pure Chemical Corporation, Japan), 10% dimethyl sulfoxide (Nacalai Tesque, Kyoto, Japan), 10% Cremophor EL (Sigma Chemical, St. Louis, MO, USA), and 70% saline (Nacalai Tesque, Kyoto, Japan), and administered intraperitoneally at a dose of 20 mg/kg every day from 4 days after transplantation. The major diameter and minor diameter were measured twice a week using calipers, and the tumor volume was calculated by 0.5× major diameter×minor diameter^2. 3.5 Weeks after cell transplantation, the tumor was removed and the weight was measured. […]

[8] = system: human colon cancer SW48 transplanted tumors; test: In vivo antitumor effect in a human colon cancer SW48 cell subcutaneous transplantation model; design: species or system mouse; settings: CB17 SCID mice, 20 mg/kg intraperitoneally every day from 4 days after transplantation, 3.5 weeks; FIG. 7(A),(B)
Protocol: as §1

SMILES	proliferation of human colon cancer SW48 cells (number of viable cells) [1]	phosphorylated AMPK in SW48 cells (phosphorylated AMPK [2])	phosphorylated AMPK in A549 cells (phosphorylated AMPK [3])	combination effect with temozolomide on proliferation of U251 cells (combination index, isobologram) [4]	AMP/ATP ratio of SW48 cells [5]	in vivo tumor size of transplanted glioblastoma [6]	body weight change [7]	tumor volume and tumor mass of SW48 subcutaneous transplanted tumors [8]
CCCCCCCCCOCCOCCOCCOCCCCCCCCCCCCNC(=O)c1ccsc1 [I-4, N-(13,16,19,22-tetraoxahentriacontan-1-yl)thiophene-3-carboxamide]	proliferation suppressive action	phosphorylated AMPK increasing action	–	–	–	–	–	–
CCCCCCCCCCOCCOCCOCCOCCOCCCCCCCCCNC(=O)c1ccsc1 [I-16, N-(10,13,16,19,22-pentaoxadotriacontan-1-yl)thiophene-3-carboxamide]	–	–	phosphorylated AMPK increasing action	–	–	–	–	–
CCCCCCCCCCOCCOCCOCCOCCCCCCCCCCCCNC(=O)c1ccsc1 [I-5, N-(13,16,19,22-tetraoxadotriacontan-1-yl)thiophene-3-carboxamide]	proliferation suppressive action	phosphorylated AMPK increasing action	–	synergistically potentiates the proliferation suppressive ability of temozolomide	has action to increase the AMP/ATP ratio	suppresses proliferation of glioblastoma transplanted tumor	no significant body weight change	suppresses proliferation of human colon cancer SW48 transplanted tumors
COCCOCCOCCOCCCCCCCCCCCCNC(=O)c1csc(C)c1 [I-10, N-(13,16,19,22-tetraoxatricosan-1-yl)-5-methylthiophene-3-carboxamide]	proliferation suppressive action	phosphorylated AMPK increasing action	–	–	–	–	–	–
